SMILES strings stand for the structures.

For experiment [1], the target named is T1, CFTR in F508del/F508del primary CF hBE cells (Homo sapiens, UniProt P13569, DEL508-508).
T1 construct: Primary cystic fibrosis human bronchial epithelial (CF hBE) cells were expanded and cultured; endogenous in cells; host or cells: primary CF human bronchial epithelial cells, genotype F508del/F508del
In words: Ussing chamber electrophysiology assay of CFTR potentiation in F508del/F508del CF bronchial epithelial cells (27° C.). The experiment is classed as cell-based. In outline: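 Well-differentiated primary CF hBE cells (>30 days air/liquid interface) in Ussing chambers, HEPES saline both sides, voltage clamped to zero. Amiloride 30 uM, forskolin 10 uM, four rising compound concentrations, then CFTRinh-172 20 uM added at 20-25 min intervals. Short-circuit current scaled to DMSO (0%) and a positive control potentiator maximum (100%).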

Experiment [2] deals with T2, recombinant F508del V470 CFTR in Fischer rat thyroid (FRT) cells (Homo sapiens, UniProt P13569, DEL508-508).
T2 construct: expressed in transfected cells
As to the kind of experiment: FRT ion flux assay of F508del CFTR potentiation. The experiment is classed as cell-based. Particulars: FRT cells expressing F508del V470 CFTR, forskolin 20 uM, 27° C. pre-incubation. An outline of the steps: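 FRT cells co-expressing F508del V470 CFTR and halide-sensitive YFP, temperature-corrected at 27° C for 16-24 h, then treated 30 min with compound plus 20 uM forskolin. Iodide addition quenches YFP, read after ~21 s; ratio scaled to DMSO (0%) and positive control potentiator (100%).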

T1 sequence (P13569 with tags, fused parts or gaps DEL508-508): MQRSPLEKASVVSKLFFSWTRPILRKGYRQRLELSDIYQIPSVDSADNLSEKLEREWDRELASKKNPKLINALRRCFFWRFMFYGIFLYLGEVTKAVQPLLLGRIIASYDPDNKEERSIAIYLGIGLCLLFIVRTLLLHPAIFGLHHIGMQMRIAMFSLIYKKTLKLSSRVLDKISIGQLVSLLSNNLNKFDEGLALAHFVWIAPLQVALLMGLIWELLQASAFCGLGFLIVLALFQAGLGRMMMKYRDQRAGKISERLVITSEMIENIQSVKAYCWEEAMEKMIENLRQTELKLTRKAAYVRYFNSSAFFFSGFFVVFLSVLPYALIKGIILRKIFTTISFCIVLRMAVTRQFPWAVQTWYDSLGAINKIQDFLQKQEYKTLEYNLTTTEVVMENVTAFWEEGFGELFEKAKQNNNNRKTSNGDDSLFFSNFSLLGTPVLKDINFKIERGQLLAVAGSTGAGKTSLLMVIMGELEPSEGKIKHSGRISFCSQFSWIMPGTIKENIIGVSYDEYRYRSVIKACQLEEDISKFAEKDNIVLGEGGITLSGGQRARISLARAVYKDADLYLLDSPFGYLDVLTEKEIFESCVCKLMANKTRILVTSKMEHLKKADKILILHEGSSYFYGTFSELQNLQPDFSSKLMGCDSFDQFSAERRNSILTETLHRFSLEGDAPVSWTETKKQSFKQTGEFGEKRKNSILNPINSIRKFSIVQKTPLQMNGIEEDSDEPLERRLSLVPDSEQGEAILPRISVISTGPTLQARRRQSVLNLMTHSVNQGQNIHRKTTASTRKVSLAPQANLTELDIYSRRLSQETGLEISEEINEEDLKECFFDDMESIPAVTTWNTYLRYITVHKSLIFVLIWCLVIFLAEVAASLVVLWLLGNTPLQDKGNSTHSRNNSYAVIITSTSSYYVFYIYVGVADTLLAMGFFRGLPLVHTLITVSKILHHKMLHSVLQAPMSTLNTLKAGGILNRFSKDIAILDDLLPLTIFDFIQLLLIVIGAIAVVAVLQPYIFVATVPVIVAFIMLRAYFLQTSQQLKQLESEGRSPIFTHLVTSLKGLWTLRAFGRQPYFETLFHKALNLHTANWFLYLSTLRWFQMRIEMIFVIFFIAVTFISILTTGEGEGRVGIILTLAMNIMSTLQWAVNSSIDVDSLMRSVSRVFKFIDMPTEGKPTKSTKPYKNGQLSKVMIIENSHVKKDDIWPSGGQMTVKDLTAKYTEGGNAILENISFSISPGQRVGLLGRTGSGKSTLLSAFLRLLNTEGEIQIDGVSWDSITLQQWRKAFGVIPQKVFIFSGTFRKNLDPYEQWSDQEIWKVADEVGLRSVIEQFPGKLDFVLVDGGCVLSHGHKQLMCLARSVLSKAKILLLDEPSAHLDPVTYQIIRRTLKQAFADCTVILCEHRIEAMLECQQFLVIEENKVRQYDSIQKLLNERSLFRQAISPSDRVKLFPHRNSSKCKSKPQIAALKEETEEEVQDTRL
T2 sequence (P13569 with tags, fused parts or gaps DEL508-508): as above

As for `CC(c1cn(-c2ccccc2F)nn1)n1cc(-c2ccc(OC3CC3)nc2)c2c(N)ncnc21` (single isomer, unassigned; enantiomer 2) [Example 120, (+) 5-[6-(Cyclopropyloxy)pyridin-3-yl]-7-{1-[1-(2-fluorophenyl)-1H-1,2,3-triazol-4-yl]ethyl}-7H-pyrrolo[2,3-d]pyrimidin-4-amine, enantiomer 2], the EC50 worked out at 5.48 nM in experiment [1] and 33.4 nM in experiment [2].

Take `CCC(c1cn(-c2ccccc2F)nn1)n1cc(-c2ccc(Cl)cc2)c2c(N)ncnc21` (single isomer, unassigned; enantiomer 1) [Example 131, 5-(4-Chlorophenyl)-7-{1-[1-(2-fluorophenyl)-1H-1,2,3-triazol-4-yl]propyl}-7H-pyrrolo[2,3-d]pyrimidin-4-amine, enantiomer 1]: the EC50 came out at 282 nM in experiment [1] and 623 nM in experiment [2].

As to `CC(c1cnc(-c2ccccc2F)[nH]1)n1cc(-c2cc[nH]n2)c2c(N)ncnc21` (centres unmarked) [Example 60, 7-{1-[2-(2-Fluorophenyl)-1H-imidazol-5-yl]ethyl}-5-(1H-pyrazol-3-yl)-7H-pyrrolo[2,3-d]pyrimidin-4-amine], the figures for the EC50 in experiment [1] and in experiment [2] were 80 nM and 45.3 nM, respectively.

For `CCC(c1cn(-c2ccccc2F)nn1)n1cc(-c2cncnc2OC)c2c(N)ncnc21` (single isomer, unassigned; enantiomer 1) [Example 133, (−) 7-{1-[1-(2-Fluorophenyl)-1H-1,2,3-triazol-4-yl]propyl}-5-(4-methoxypyrimidin-5-yl)-7H-pyrrolo[2,3-d]pyrimidin-4-amine, enantiomer 1], the EC50 stood at 721 nM in experiment [1] and 918 nM in experiment [2].

On to `CCC(c1cn(-c2ccc(F)cc2)nn1)n1cc(-c2cncnc2OC)c2c(N)ncnc21` (single isomer, unassigned; enantiomer 1) [Example 149, (+) 7-{1-[1-(4-Fluorophenyl)-1H-1,2,3-triazol-4-yl]propyl}-5-(4-methoxypyrimidin-5-yl)-7H-pyrrolo[2,3-d]pyrimidin-4-amine, enantiomer 1], for which the EC50 worked out at 45.3 nM in experiment [1] and 28.9 nM in experiment [2].

For `CCC(c1cn(-c2cccc(F)c2F)nn1)n1cc(-c2cnc(C(F)(F)F)nc2)c2c(N)ncnc21` (single isomer, unassigned) [Example 188, 7-{1-[1-(2,3-Difluorophenyl)-1H-1,2,3-triazol-4-yl]propyl}-5-[2-(trifluoromethyl)pyrimidin-5-yl]-7H-pyrrolo[2,3-d]pyrimidin-4-amine], the EC50 in experiment [1] was determined as 243 nM; in experiment [2] it was 551 nM.

In the case of `CCC(c1cn(-c2ccc(F)cc2F)nn1)n1cc(-c2cnc(OC)c(F)c2)c2c(N)ncnc21` (single isomer, unassigned; enantiomer 2) [Example 166, 7-{1-[1-(2,4-Difluorophenyl)-1H-1,2,3-triazol-4-yl]propyl}-5-(5-fluoro-6-methoxypyridin-3-yl)-7H-pyrrolo[2,3-d]pyrimidin-4-amine, enantiomer 2], the EC50 in experiment [1] stood at 9 nM; in experiment [2] it was 24.6 nM.

Turning to `CC(c1cn(-c2ccccc2F)nn1)n1cc(-c2cc(F)cc(Cl)c2)c2c(N)ncnc21` (centres unmarked) [Example 99, 5-(3-Chloro-5-fluorophenyl)-7-{1-[1-(2-fluorophenyl)-1H-1,2,3-triazol-4-yl]ethyl}-7H-pyrrolo[2,3-d]pyrimidin-4-amine], the EC50 in experiment [1] was 35.9 nM; in experiment [2], 50 nM.

Regarding `CC(c1cn(-c2ccccc2F)nn1)n1cc(-c2ccc(OC3CC3)cc2)c2c(N)ncnc21` (single isomer, unassigned; enantiomer 2) [Example 118, (−) 5-[4-(Cyclopropyloxy)phenyl]-7-{1-[1-(2-fluorophenyl)-1H-1,2,3-triazol-4-yl]ethyl}-7H-pyrrolo[2,3-d]pyrimidin-4-amine, enantiomer 2], the 50% effective concentration (EC50) was 162 nM in experiment [1] and 378 nM in experiment [2].

Consider `CCC(c1cn(-c2cccc(F)c2F)nn1)n1c(C#N)c(-c2cnc(C(F)(F)F)nc2)c2c(N)ncnc21` (single isomer, unassigned) [Example 18, 4-amino-7-{1-[1-(2,3-difluorophenyl)-1H-1,2,3-triazol-4-yl]propyl}-5-[2-(trifluoromethyl)pyrimidin-5-yl]-7H-pyrrolo[2,3-d] pyrimidine-6-carbonitrile], for which the EC50 in experiment [1] turned out to be 12.5 nM; in experiment [2] it was 10.8 nM.

With `COc1cc(C#N)cc(-c2cn(Cc3cn(-c4ccccc4F)nn3)c3ncnc(N)c23)c1` [Example 72, 3-(4-Amino-7-{[1-(2-fluorophenyl)-1H-1,2,3-triazol-4-yl]methyl}-7H-pyrrolo[2,3-d]pyrimidin-5-yl)-5-methoxybenzonitrile], the figures for the EC50 in experiment [1] and in experiment [2] were 57 nM and 186 nM, respectively.

Consider `N#Cc1c(-c2cnc(C(F)(F)F)nc2)c2c(N)ncnc2n1Cc1cnn(-c2ccc(F)cc2F)c1` [Example 29, 4-Amino-7-{[1-(2,4-difluorophenyl)-1H-pyrazol-4-yl]methyl}-5-[2-(trifluoromethyl)pyrimidin-5-yl]-7H-pyrrolo[2,3-d]pyrimidine-6-carbonitrile], for which the EC50 in experiment [1] amounted to 2.24 nM; in experiment [2], 2.33 nM.

On to `CCC(c1cn(-c2cccc(F)c2F)nn1)n1cc(-c2cc(F)cnc2OC)c2c(N)ncnc21` (single isomer, unassigned; enantiomer 1) [Example 169, 7-{1-[1-(2,3-Difluorophenyl)-1H-1,2,3-triazol-4-yl]propyl}-5-(5-fluoro-2-methoxypyridin-3-yl)-7H-pyrrolo[2,3-d]pyrimidin-4-amine, enantiomer 1], for which the EC50 in experiment [1] was 4.9 nM; in experiment [2], 7.98 nM.

As to `COc1ncncc1-c1cn(C(c2cn(-c3ccccc3F)nn2)C2COC2)c2ncnc(N)c12` (centres unmarked) [Example 315, 7-{[1-(2-Fluorophenyl)-1H-1,2,3-triazol-4-yl](oxetan-3-yl)methyl}-5-(4-methoxypyrimidin-5-yl)-7H-pyrrolo[2,3-d]pyrimidin-4-amine], the figures for the EC50 in experiment [1] and in experiment [2] were 2930 nM and 933 nM, respectively.

For `CC(c1cnc(-c2ccccc2F)[nH]1)n1cc(-c2ccc3[nH]ncc3c2)c2c(N)ncnc21` (centres unmarked) [Example 66, 7-{1-[2-(2-Fluorophenyl)-1H-imidazol-5-yl]ethyl}-5-(1H-indazol-5-yl)-7H-pyrrolo[2,3-d]pyrimidin-4-amine], the EC50 in experiment [1] stood at 1320 nM; in experiment [2], 573 nM.

In the case of `N#Cc1ccc(-c2cn(Cc3cnc(-c4ccccc4F)[nH]3)c3ncnc(N)c23)cc1F` [Example 192, 4-(4-Amino-7-{[2-(2-fluorophenyl)-1H-imidazol-5-yl]methyl}-7H-pyrrolo[2,3-d]pyrimidin-5-yl)-2-fluorobenzonitrile], the EC50 in experiment [1] amounted to 118 nM; in experiment [2], 83 nM.

`COc1ncccc1-c1cn(Cc2ccn(-c3ccccc3F)n2)c2ncnc(N)c12` [Example 268, 7-{[1-(2-Fluorophenyl)-1H-pyrazol-3-yl]methyl}-5-(2-methoxypyridin-3-yl)-7H-pyrrolo[2,3-d]pyrimidin-4-amine]: the EC50 in experiment [1] was found to be 578 nM; in experiment [2], 470 nM.

Turning to `CCC(c1c[nH]c(-c2ccc(F)cc2F)n1)n1cc(-c2cnc(C(F)(F)F)nc2)c2c(N)ncnc21` (single isomer, unassigned; enantiomer 1) [Example 177, 7-{1-[2-(2,4-Difluorophenyl)-2H-imidazol-4-yl]propyl}-5-[2-(trifluoromethyl)pyrimidin-5-yl]-7H-pyrrolo[2,3-d]pyrimidin-4-amine, enantiomer 1], the EC50 amounted to 18.9 nM in experiment [1] and 21.6 nM in experiment [2].

For the compound `CCC(c1cn(-c2ccccc2F)nn1)n1cc(-c2cncnc2OC)c2c(N)nc(C)nc21` (single isomer, unassigned; enantiomer 2) [Example 304, (−) 7-{1-[1-(2-fluorophenyl)-1H-1,2,3-triazol-4-yl]propyl}-5-(4-methoxypyrimidin-5-yl)-2-methyl-7H-pyrrolo[2,3-d]pyrimidin-4-amine, enantiomer 2], the EC50 in experiment [1] is 135 nM; in experiment [2] it was 190 nM.

In the case of `Nc1ncnc2c1c(-c1cnc(C(F)(F)F)nc1)cn2Cc1cnn(-c2ccccc2F)c1` [Example 57, 7-((1-(2-fluorophenyl)-1H-pyrazol-4-yl)methyl)-5-(2-(trifluoromethyl)pyrimidin-5-yl)-7H-pyrrolo[2,3-d]pyrimidin-4-amine], the values for the EC50 in experiment [1] and in experiment [2] were 65.9 nM and 28.8 nM, respectively.

For the compound `CCC(c1cn(-c2ccc(F)c(F)c2)nn1)n1cc(-c2cnc(C(F)(F)F)nc2)c2c(N)ncnc21` (single isomer, unassigned; enantiomer 1) [Example 153, 7-{1-[1-(3,4-Difluorophenyl)-1H-1,2,3-triazol-4-yl]propyl}-5-[2-(trifluoromethyl)pyrimidin-5-yl]-7H-pyrrolo[2,3-d]pyrimidin-4-amine, enantiomer 1], the EC50 in experiment [1] stood at 19.8 nM; in experiment [2], 59 nM.

`CC(=O)c1ccc(-c2cn(C(C)c3cn(-c4ccccc4F)nn3)c3ncnc(N)c23)cc1` (centres unmarked) [Example 96, 1-[4-(4-Amino-7-{1-[1-(2-fluorophenyl)-1H-1,2,3-triazol-4-yl]ethyl}-7H-pyrrolo[2,3-d]pyrimidin-5-yl)phenyl]ethanone]: the EC50 in experiment [1] was found to be 133 nM; in experiment [2], 98.6 nM.

The values are drawn from patent US12612409B2, “Pyrrolopyrimidines as CFTR potentiators” (Cystic Fibrosis Foundation, priority 2016, dated 2026).
